Experimental data from patent US20230159620A1, “COMPOSITIONS AND METHODS OF TREATMENT FOR VASCULAR DISEASES AND THROMBOSIS” (Washington University, priority 2021, published 2023).

Tests used:
[1] = Arterial blood pressure response to vasoactive agents; type: in vivo, mouse; details: venous administration, anesthetized Svep1+/+ and Svep1−/− mice
Experimental: Central arterial blood pressure and heart rate were measured under inhaled 1.5% isoflurane anesthesia and while mice were maintained at 37° C. using a heating pad and rectal thermometer, as done previously. Briefly, a midline incision was performed in the neck region; the thymus, muscle, and connective tissue were dissected away to isolate the right common carotid artery. After tying it distally and clamping it proximally, an incision was made in the right common carotid artery through which a Millar pressure transducer (model SPR-1000, Houston, Tex.) was introduced, the clamp was removed, and the transducer advanced to the ascending aorta. Once instrumentation was complete, arterial blood pressure (systolic, diastolic, and mean) and heart rate were recorded via the PowerLab® data acquisition system (ADlnstruments, Colorado Springs, Colo.). The average of a 3-minute period of stable recording was reported. Data were analyzed using LabChart® 8 for 673 MAC software (ADInstruments).
To assess the blood pressure response to vasoactive agents, after baseline blood pressure measurement, dissection was performed to visualize the left internal jugular (IJ) vein as done previously. Once identified, a small incision was made and PE-10 tubing was introduced and kept in place with a 6-0 silk suture. […]

[2] = tested on: mTOR; experiment: mTOR signaling immunoblot, platelets; type: cell-based, human; details: platelets pretreated with inhibitor before SVEP1
Experimental: Prior to performing signaling assays, cells were trypsinized, centrifuged, suspended in basal media, and counted using an automated hemocytometer. Cells were further diluted in basal media to an assay-dependent concentration. Cells were then incubated with gentle agitation for 60 minutes to prevent cell attachment and reduce basal signaling. […] An equal volume of DMSO was used as the negative control condition. […] 1 μg Pearl 1 polyclonal antibody was added as a specific positive control. 20% growth media or 2% fetal bovine serum, labeled “Serum” in figures, was added as a non-specific positive control. The cells were centrifuged at 300G for 3 minutes with the exception of platelets, which were centrifuged at 500G for 5 minutes. The cells were then incubated at 37° C. for 8-45 minutes, depending on the cell type and pathway of interest. The cells were lysed in radioimmunoprecipitation buffer (RIPA) containing a cocktail of protease and phosphatase inhibitors and universal nuclease. Immunoblots were performed by standard techniques, as briefly follows. […] Cell lysates were then reduced with dithiothreitol (DTT) in lithium dodecyl sulfate (LDS) sample buffer (#NP0007, Invitrogen). […] Membranes were blocked in 5% BSA/Tris-buffered saline (TBS) with 0.1% Tween 20 for 30 minutes. The indicated primary antibodies were incubated with the pre-blocked membranes overnight at 4° C. Membranes were washed with TBS with 0.1% Tween 20, probed with fluorescent secondary antibodies, and imaged. β-actin or β-tubulin served as a loading control.
Whole blood was collected by venipuncture into either heparin vacutainers (BD, Franklin Lakes) for whole blood experiments or acid-citrate-dextrose (ACD) vacutainers (BD, Franklin Lakes) for platelet isolation studies. For platelet isolation, samples were supplemented with apyrase (Sigma, St Louis) and prostaglandin E1 (Cayman Chemical, Ann Arbor), and platelet-rich plasma (PRP) was prepared by centrifugation of the ACD whole blood for 20 minutes at 200G. […]

[3] = tested on: AKT; experiment: AKT signaling immunoblot, platelets; type: cell-based, human; details: platelets pretreated with inhibitor before SVEP1
Experimental: Prior to performing signaling assays, cells were trypsinized, centrifuged, suspended in basal media, and counted using an automated hemocytometer. Cells were further diluted in basal media to an assay-dependent concentration. Cells were then incubated with gentle agitation for 60 minutes to prevent cell attachment and reduce basal signaling. PP1, Dynasore, MK-2206, and Rapamycin were diluted in DMSO and used in assay concentrations of 10 μM, 100 μM, 10 μM, and respectively, for the final 20-30 minutes of incubation in basal media. An equal volume of DMSO was used as the negative control condition. […] 1 μg Pearl 1 polyclonal antibody was added as a specific positive control. 20% growth media or 2% fetal bovine serum, labeled “Serum” in figures, was added as a non-specific positive control. The cells were centrifuged at 300G for 3 minutes with the exception of platelets, which were centrifuged at 500G for 5 minutes. The cells were then incubated at 37° C. for 8-45 minutes, depending on the cell type and pathway of interest. The cells were lysed in radioimmunoprecipitation buffer (RIPA) containing a cocktail of protease and phosphatase inhibitors and universal nuclease. Immunoblots were performed by standard techniques, as briefly follows. Protein content was determined using a bicinchoninic acid assay with BSA standards (#23225, Pierce BCA Protein Assay Kit). Cell lysates were then reduced with dithiothreitol (DTT) in lithium dodecyl sulfate (LDS) sample buffer (#NP0007, Invitrogen). Equal protein amounts were added to polyacrylamide gels (#4561086, BioRad) and electrophoresed prior to transferring to a nitrocellulose or polyvinylidene fluoride membrane (#1620260, BioRad). Membranes were blocked in 5% BSA/Tris-buffered saline (TBS) with 0.1% Tween 20 for 30 minutes. The indicated primary antibodies were incubated with the pre-blocked membranes overnight at 4° C. Membranes were washed with TBS with 0.1% Tween 20, probed with fluorescent secondary antibodies, and imaged. β-actin or β-tubulin served as a loading control.
Whole blood was collected by venipuncture into either heparin vacutainers (BD, Franklin Lakes) for whole blood experiments or acid-citrate-dextrose (ACD) vacutainers (BD, Franklin Lakes) for platelet isolation studies. For platelet isolation, samples were supplemented with apyrase (Sigma, St Louis) and prostaglandin E1 (Cayman Chemical, Ann Arbor), and platelet-rich plasma (PRP) was prepared by centrifugation of the ACD whole blood for 20 minutes at 200G. Platelets were isolated from the PRP by centrifugation for 10 minutes at 1000G and resuspended in modified Tyrode's buffer twice at desired platelet counts and kept at 37° C. until used. Isolated platelets were used within 2 hours of preparation.

[4] = tested on: VSMCs; experiment: VSMC proliferation assay (BrdU incorporation); type: cell-based, mouse
Experimental: Plates were UV sterilized before adding cells. […] For analysis of peritoneal macrophages, 4% thioglycolate-elicited peritoneal macrophages from Itg α9^MAC+/+ and Itg α9^MACfl/fl mice were suspended in BrdU dissolved in RPMI 1640 media containing 10% FBS. 2.5×10^4 cells were added to each well since peritoneal macrophages are smaller and have lower proliferation rates than VSMCs in culture.
Plates were ultraviolet (UV) sterilized before adding cells. […] Efficient Itgα9 knockdown was confirmed by qPCR.

[5] = tested on: AKT; experiment: AKT signaling immunoblot / phospho-array, HUVECs; type: cell-based, human; details: PP1 10 μM, Dynasore 100 μM, vs DMSO
Experimental: Cellular reagents were purchased from various commercial vendors. Primary human umbilical vein endothelial cells (HUVECs) were obtained from Cell Applications Inc. and cultured according to the manufacture's recommendations. Primary human coronary artery smooth muscle cells were obtained from Invitrogen and were cultured according to the manufacture's recommendations. 293T cells were obtained from ATCC and were cultured according to the manufacture's recommendations. Mouse primary smooth muscle cells were obtained and cultured as described previously. Predesigned Silencer Select siRNA constructs targeting Pearl 1 and negative control siRNA were obtained from ThermoFisher. Transfections were performed using RNAiMAX or Lipofectamine 3000 transfection reagents according to the manufacturer's protocols. Cells were used for signaling assays 48 hours after transfection; efficient Pearl 1 knockdown or Pearl 1 overexpression was confirmed by immunoblot assays.
Prior to performing signaling assays, cells were trypsinized, centrifuged, suspended in basal media, and counted using an automated hemocytometer. Cells were further diluted in basal media to an assay-dependent concentration. Cells were then incubated with gentle agitation for 60 minutes to prevent cell attachment and reduce basal signaling. PP1, Dynasore, MK-2206, and Rapamycin were diluted in DMSO and used in assay concentrations of 10 μM, 100 μM, 10 μM, and respectively, for the final 20-30 minutes of incubation in basal media. An equal volume of DMSO was used as the negative control condition. […] 1 μg Pearl 1 polyclonal antibody was added as a specific positive control. 20% growth media or 2% fetal bovine serum, labeled “Serum” in figures, was added as a non-specific positive control. The cells were centrifuged at 300G for 3 minutes with the exception of platelets, which were centrifuged at 500G for 5 minutes. The cells were then incubated at 37° C. for 8-45 minutes, depending on the cell type and pathway of interest. The cells were lysed in radioimmunoprecipitation buffer (RIPA) containing a cocktail of protease and phosphatase inhibitors and universal nuclease. Immunoblots were performed by standard techniques, as briefly follows. Protein content was determined using a bicinchoninic acid assay with BSA standards (#23225, Pierce BCA Protein Assay Kit). Cell lysates were then reduced with dithiothreitol (DTT) in lithium dodecyl sulfate (LDS) sample buffer (#NP0007, Invitrogen). Equal protein amounts were added to polyacrylamide gels (#4561086, BioRad) and electrophoresed prior to transferring to a nitrocellulose or polyvinylidene fluoride membrane (#1620260, BioRad). Membranes were blocked in 5% BSA/Tris-buffered saline (TBS) with 0.1% Tween 20 for 30 minutes. […]

Compound | change in blood pressure [1] | dependence of SVEP1-induced p70S6K Thr 389 phosphorylation on the inhibited protein or process [2] | effect of inhibitor on activation of AKT by SVEP1 [3] | effect of inhibitor pretreatment on AKT activation by SVEP1 and Pearl 1 pAb [5] | also measured
CNC[C@H](O)c1cccc(O)c1 [phenylephrine] | dose-dependent manner | – | – | – | –
NC1(c2ccc(-c3nc4ccn5c(=O)[nH]nc5c4cc3-c3ccccc3)cc2)CCC1 [MK-2206] | – | partially dependent | completely abrogated | – | –
C[C@H](NC(=O)Cc1cc(F)cc(F)c1)C(=O)N[C@H](C(=O)OC(C)(C)C)c1ccccc1 [DAPT, reference compound] | – | – | – | – | effect on cell proliferation in response to 10% fetal bovine serum ([4]; 25 μM DAPT): not significantly inhibited; effect on SVEP1-induced proliferation ([4]; 25 μM DAPT vs DMSO): completely abrogated
Cc1ccc(-c2nn(C(C)(C)C)c3ncnc(N)c23)cc1 [PP1] | – | dependent | completely abrogated | abrogated | –
angiotensin II | dose-dependent manner | – | – | – | –
O=C(N/N=C/c1ccc(O)c(O)c1)c1cc2ccccc2cc1O [Dynasore] | – | partially dependent | partially abrogated | abrogated | –
